From patent publication US6440471B2, “Plant proanthocyanidin extracts” (JLB, Inc., priority 1999, dated 2002)
Entries after “also recorded” stand apart in the source; their conditions may differ.

system: adhesion of bacteria; assay: Anti-adhesion assay (not further specified); assay type: cell-based
Text: Further, quercetin and myricetin, which both share the catechin or epicatechin-like nucleus with leucocyanins but have R^2=H or OH, have been tested in the anti-adhesion assay and show no activity. […] Further, as described previously herein, one of the anti-adhesion assays described herein compares the ability of a substance to inhibit binding relative to mannose inhibition of such adhesion, and it is therefore believed that a carbohydrate moiety is involved in conferring anti-adhesion activity.

| Compound | anti-adhesion activity |
| --- | --- |
| O=c1c(O)c(-c2cc(O)c(O)c(O)c2)oc2cc(O)cc(O)c12 [myricetin] | no activity |
| O=c1c(O)c(-c2ccc(O)c(O)c2)oc2cc(O)cc(O)c12 [quercetin] | no activity |
| myricetin-3-pyranoside | some anti-adhesion activity; also recorded: does have anti-adhesion activity |
